These results are taken from article PMC9168903, “Crystal Structures of Arabidopsis thaliana GDP-D-Mannose Pyrophosphorylase VITAMIN C DEFECTIVE 1” (Frontiers in Plant Science, 2022).

One data set addresses T1, VTC1 (Arabidopsis thaliana, UniProt O22287).
T1 construct: gene CYT1; full-length recombinant, 41 kDa; dimer, tetramer and aggregate in SEC
T1 sequence (O22287 1-361): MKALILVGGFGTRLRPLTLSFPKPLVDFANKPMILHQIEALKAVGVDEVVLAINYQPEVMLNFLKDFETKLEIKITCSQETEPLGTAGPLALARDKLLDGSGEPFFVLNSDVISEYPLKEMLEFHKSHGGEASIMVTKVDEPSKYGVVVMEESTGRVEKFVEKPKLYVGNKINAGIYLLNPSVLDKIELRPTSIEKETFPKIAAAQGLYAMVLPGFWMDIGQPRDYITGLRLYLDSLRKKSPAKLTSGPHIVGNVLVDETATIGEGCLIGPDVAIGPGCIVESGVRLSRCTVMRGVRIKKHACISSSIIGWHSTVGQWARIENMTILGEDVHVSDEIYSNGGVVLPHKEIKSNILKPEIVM
The data set can be described thus: X-ray crystal structure, […] Å. Type of data set: binding.

Another data set addresses T2, VTC1ΔC (Arabidopsis thaliana, UniProt O22287).
T2 construct: gene CYT1; truncation lacking the C-terminal 139 residues (LβH domain region removed); catalytic domain; recombinant, purified as full-length VTC1
Description: GMPase assay, malachite green phosphate release after pyrophosphatase. The following applies: 0.2 mM Man-1-P, 0.2 mM GTP, 1 mM MgCl2, 1 mM DTT, 50 mM Tris-HCl pH 7.5, 37 °C, 0.2 μM enzyme. It is filed as biochemical.

Data set [1] deals with the molecule itself. The data set can be described thus: SEC; HiLoad 16/60 Superdex 200 column; purified recombinant VTC1; three peaks compared with protein standards.
Data set [2] deals with the molecule itself. The data set can be described thus: crystal structure; product-bound VTC1 (GDP-Man, PPi, citrate), 3.0 Å, space group R32, two dimers in the asymmetric unit, threefold symmetry.

Values joined by “and” are separate entries in the source; they are usually repeats but may differ in a detail not shown here. Equal entries are not always repeated.

Turning to `O=P(O)(O)OP(=O)(O)O` [inorganic pyrophosphate], the “X-ray crystal structure, 3.0 Å” value at VTC1 (catalytic domain, β1–η1 loop, bound in inner and outer protomers, same site as citrate) is “the inner and outer protomers each bind a PPi”. Take `Nc1nc2c(ncn2[C@@H]2O[C@H](COP(=O)(O)OP(=O)(O)OP(=O)(O)O)[C@@H](O)[C@H]2O)c(=O)[nH]1` [GTP]: the “GMPase assay, malachite green phosphate release after pyrophosphatase” value on VTC1ΔC is listed as “VTC1ΔC retained, but only ca. one third of the GMPase activity”.

With `O=P(O)(O)O[C@H]1O[C@H](CO)[C@@H](O)[C@H](O)[C@@H]1O` [D-mannose-1-phosphate], on VTC1ΔC, the “GMPase assay, malachite green phosphate release after pyrophosphatase” value is listed as “VTC1ΔC retained, but only ca. one third of the GMPase activity”. For `Nc1nc2c(ncn2[C@@H]2O[C@H](COP(=O)(O)OP(=O)(O)O[C@H]3O[C@H](CO)[C@@H](O)[C@H](O)[C@@H]3O)[C@@H](O)[C@H]2O)c(=O)[nH]1` [GDP-D-mannose], on VTC1 (active site of catalytic domain, bound in middle protomer, citrate also bound), the “X-ray crystal structure, 3.0 Å” value is reported as “The product GDP-Man binds at the edge of the central β-sheet (Figure 4C)”.

B1: Arabidopsis thaliana GDP-D-mannose pyrophosphorylase VITAMIN C … 1 (enzyme, UniProt O22287 1-361, looked up)
chain: T1 sequence (O22287 1-361)
notes: VTC1 (GDP-D-mannose pyrophosphorylase), Arabidopsis thaliana, full-length; recombinant protein stated to have a molecular weight of 41 kDa; also called VTC1; GMPase; source: recombinant, purified (SEC on HiLoad 16/60 Superdex 200); production described previously (Zhao and Liu, 2016)
Consider B1, for which the “stoichiometry N” value in data set [1] was 2 and 4; in data set [2], 12.
